In brackets after ≈: the same amount, converted by molar mass.
Experiments:
[1] = DPPH microplate radical scavenging antioxidant assay; format: biochemical; settings: DPPH, 30 min, mean ± SD (n = 3)
How it was run: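 Compounds, starting at 200 μg/mL in a dilution series, incubated with 0.2 mM methanolic DPPH for 30 min in the dark at 25° C. Absorbance at 515 nm converted to percent antioxidant activity; IC50 from concentration series, triplicate, mean±SD (n=3).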

[2] = test system: Bacillus megaterium ATCC 9885; assay: Agar well diffusion, primary antimicrobial screening; format: cell-based; settings: Priestia megaterium, ATCC9885; B. megaterium ATCC 9885; 100 μL of 10 mg/ml in DMSO, 24 h; read-out: Inhibition Diameter Zone BM
How it was run: (§1)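 Seeded agar (bacteria 1×10^8 CFU/mL on nutrient agar; yeasts 1×10^6 CFU/ml on Sabouraud dextrose agar), 10 mm wells loaded with compound at 10 mg/ml in DMSO. Incubated 24 h at 37° C. Inhibition zone diameter (mm), mean of triplicate; DMSO negative control.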

[3] = test system: Bacillus subtilis ATCC 6633; assay: as above; format: cell-based; settings: Bacillus subtilis, ATCC6633; B. subtilis ATCC 6633; 100 μL of 10 mg/ml in DMSO, 24 h; read-out: Inhibition Diameter Zone BS
How it was run: as §1

[4] = test system: Escherichia coli ATCC 2592; assay: as above; format: cell-based; settings: Escherichia coli, ATCC2592; E. coli ATCC 2592; 100 μL of 10 mg/ml in DMSO, 24 h; read-out: Inhibition Diameter Zone EC
How it was run: as §1

[5] = test system: Pseudomonas aeruginosa ATCC 27953; assay: as above; format: cell-based; settings: Pseudomonas aeruginosa, ATCC27953; P. aeruginosa ATCC 27953; 100 μL of 10 mg/ml in DMSO, 24 h; read-out: Inhibition Diameter Zone PA
How it was run: as §1

[6] = test system: Candida albicans NRRL Y-477; assay: MIC by two fold serial dilution technique; format: cell-based; settings: NRRLY477, C. albicans, read-out: Minimal Inhibitory Concentration (MIC) CA
Text: (§2) The newly synthesized compounds were individually tested for their in vitro antimicrobial activity against the standard bacteria strains of American Type Culture Collection (ATCC), namely, Staphylococcus aureus ATCC 29213, Bacillus subtilis ATCC 6633, Bacillus megaterium ATCC 9885 (Gram-positive), Escherichia coli ATCC 2592 and Pseudomonas aeruginosa ATCC 27953 (Gram-negative). In addition, they were microbiologically tested against the locally isolated Saccharomyces cerevisiae (yeast) and the standard strain of Agricultural Research Service Culture Collection (NRRL) of the yeast like pathogenic fungus Candida albicans NRRL Y-477. The primary screening was carried out using the agar well diffusion method using nutrient agar (NA) medium and Sabourand dextrose agar (SDA) medium for pathological tested bacteria and yeast, respectively.
(§3) The bacteriostatic activity of the active compounds (having IZ>16 mm) was then evaluated using the two fold serial dilution technique. Two-fold serial dilutions of the tested compound solutions were prepared using the proper nutrient broth. The final concentration of the solutions were 1000, 500, 250 and 125 μg/ml. The tubes were then inoculated with the test organisms, grown in their suitable broth at 37° C. for 24 hours for tested microorganisms. (1×10^8 CFU/ml for bacteria and 1×10^6 CFU/ml of yeast), each 5 ml received 0.1 ml of the above inoculum and incubated at 37° C. for 24 h. The lowest concentration showing no growth was taken as the minimum inhibitory concentration (MIC).

[7] = test system: Saccharomyces cerevisiae (local isolate); assay: MIC by two fold serial dilution technique; format: cell-based; settings: read-out: Minimal Inhibitory Concentration (MIC) SC
Text: as §2, §3

[8] = test system: Staphylococcus aureus ATCC 29213; assay: MIC by two fold serial dilution technique; format: cell-based; settings: ATCC29213, S. aureus, read-out: Minimal Inhibitory Concentration (MIC) SA
Text: as §2, §3

[9] = test system: trypsin; assay: Proteinase inhibitory activity (trypsin/casein); format: biochemical; settings: for % Inhibition of proteinase activity: 250 μg/ml, mean ± SD (n = 3)
How it was run: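 Trypsin (0.06 mg) in 20 mM Tris-HCl pH 7.4 was preincubated 5 min with test sample (250 μg/ml solution), then 0.8% casein was added for 20 min. The reaction was stopped with perchloric acid, and supernatant absorbance was read at 280 nm after centrifugation. Percent inhibition relative to the uninhibited control was determined in triplicate.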

[10] = test system: Bacillus megaterium ATCC 9885; assay: MIC by two fold serial dilution technique; format: cell-based; settings: Priestia megaterium, ATCC9885; B. megaterium; read-out: Minimal Inhibitory Concentration (MIC) BM
Text: as §2, §3

[11] = test system: Bacillus subtilis ATCC 6633; assay: MIC by two fold serial dilution technique; format: cell-based; settings: ATCC6633, B. subtilis, read-out: Minimal Inhibitory Concentration (MIC) BS
Text: as §2, §3

[12] = test system: Escherichia coli ATCC 2592; assay: MIC by two fold serial dilution technique; format: cell-based; settings: ATCC2592, E. coli, read-out: Minimal Inhibitory Concentration (MIC) EC
Text: as §2, §3

[13] = test system: Pseudomonas aeruginosa ATCC 27953; assay: MIC by two fold serial dilution technique; format: cell-based; settings: ATCC27953, P. aeruginosa, read-out: Minimal Inhibitory Concentration (MIC) PA
Text: as §2, §3

[14] = test system: tested microorganisms; assay: MIC by two fold serial dilution, summary over the tested microorganisms; format: cell-based
Text: as §2, §3

[15] = test system: formaldehyde-induced paw oedema; assay: Formaldehyde-induced rat paw oedema; format: in vivo; settings: 2.5 mg/kg orally
Experimental: Testing was performed to determine formaldehyde-induced rat paw oedema (edema). For the formaldehyde-induced rat paw oedema (edema) test, female Wister albino rats (150-175 g) were used for determination of the anti-inflammatory activities. The rats were obtained from the animal house colony of the National Organization for Drug Control and Research (NODCAR), Egypt. The animals were kept in standard plastic cages in an air conditioned room at 22±3° C., 55±5% humidity and supplied with standard laboratory diet and water ad libitum. All animal experimental procedures were carried out according to the Ethics Committee of the National Research Centre, Cairo, Egypt and followed the guidelines of the National Institutes of Health, Guide for Care and Use of Laboratory Animals (1985).
The percentage protection against inflammation was calculated by using following formula:
[formula] where Vc is the mean percentage increase in paw volume in the control and Vd is the mean percentage increase in paw volume after injection of the test compound. Values were expressed as mean±standard error (S.E.). Comparisons between mean values were carried out using two-way analysis of variance (ANOVA), followed by Tukey Kramer multiple comparisons test for all acute toxicity study tests. […] was considered significant. Graph pad prism software (version 6) was used to carry out all statistical tests.

| SMILES | IC50 [1] | zone of inhibition at 10000 µg/mL [2] | zone of inhibition at 10000 µg/mL [3] | zone of inhibition at 10000 µg/mL [4] | zone of inhibition at 10000 µg/mL [5] | MIC [6] | MIC [7] | MIC [8] | in vitro anti-proteinase activity compared with aspirin [9] | % Inhibition of proteinase activity [9] | melting point | MIC [10] | MIC [11] | MIC [12] | MIC [13] | MIC ([14]; against gram-positive bacteria) | in vivo anti-inflammatory activity [15] | MIC ([14]; against most of the tested microorganisms) |
| --- | --- | --- | --- | --- | --- | --- | --- | --- | --- | --- | --- | --- | --- | --- | --- | --- | --- | --- |
| COc1cc(C=NC2=C(C#N)C(c3ccco3)c3c(c4cc(C)ccc4oc3=O)O2)cc(OC)c1OC (racemic) [Compound 8d, (±)-4-(furan-2-yl)-9-methyl-5-oxo-2-((3,4,5-trimethoxybenzylidene)amino)-4H,5H-pyrano[3,2-c]chromene-3-carbonitrile] | 82.92 ± 3.30 µg/mL (≈ 166 µM) | < 15 mm | < 15 mm | < 15 mm | < 15 mm | 1000 µg/mL (≈ 2010 µM) | 1000 µg/mL (≈ 2010 µM) | 1000 µg/mL (≈ 2010 µM) | as potent | 43.4 ± 1.52% | 248 to 250 °C | – | – | – | – | – | – | – |
| COc1cc(C=NC2=C(C#N)C(c3ccc([N+](=O)[O-])cc3)c3c(c4cc(C)ccc4oc3=O)O2)cc(OC)c1OC (racemic) [Compound 8c, (±)-9-methyl-4-(4-nitrophenyl)-5-oxo-2-((3,4,5-trimethoxybenzylidene)amino)-4H,5H-pyrano[3,2-c]chromene-3-carbonitrile] | — ((—): inactive (IC50 > 200 μg/mL)) | – | – | – | – | 500 µg/mL (≈ 903 µM) | 500 µg/mL (≈ 903 µM) | 500 µg/mL (≈ 903 µM) | more potent | 68.5±6.23% | 221 to 223 °C | 500 µg/mL (≈ 903 µM) | 500 µg/mL (≈ 903 µM) | 500 µg/mL (≈ 903 µM) | 500 µg/mL (≈ 903 µM) | – | – | – |
| Cc1ccc2oc(=O)c3c(c2c1)OC(N=Cc1ccc(Cl)cc1Cl)=C(C#N)C3c1ccco1 (racemic) [Compound 8f, (±)-2-((2,4-dichlorobenzylidene)amino)-4-(furan-2-yl)-9-methyl-5-oxo-4H,5H-pyrano[3,2-c]chromene-3-carbonitrile] | — ((—): inactive (IC50 > 200 μg/mL)) | 20 mm | – | 20 mm | – | 500 µg/mL (≈ 1050 µM) | 500 µg/mL (≈ 1050 µM) | 500 µg/mL (≈ 1050 µM) | – | 26.83 ± 5.33% | > 300 °C | 1000 µg/mL (≈ 2100 µM) | 500 µg/mL (≈ 1050 µM) | 1000 µg/mL (≈ 2100 µM) | 1000 µg/mL (≈ 2100 µM) | 500 to 1000 µg/mL (≈ 1050 to 2100 µM) | – | – |
| Cc1ccc2oc(=O)c3c(c2c1)OC(N)=C(C#N)C3c1ccco1 (racemic) [Compound 5b, (±)-2-amino-4-(furan-2-yl)-9-methyl-5-oxo-4H,5H-pyrano[3,2-c]chromene-3-carbonitrile] | — ((—): inactive (IC50 > 200 μg/mL)) | – | – | – | – | – | – | – | more potent | 74.68±3.01% | 251 to 253 °C | – | – | – | – | 500 to 1000 µg/mL (≈ 1560 to 3120 µM) | significant protection against inflammation | – |
| Cc1ccc2oc(=O)c3c(c2c1)OC(N=Cc1ccccc1)=C(C#N)C3c1ccc([N+](=O)[O-])cc1 (racemic) [Compound 8a, (±)-2-(benzylideneamino)-9-methyl-4-(4-nitrophenyl)-5-oxo-4H,5H-pyrano[3,2-c]chromene-3-carbonitrile] | — ((—): inactive (IC50 > 200 μg/mL)) | – | – | – | – | 500 µg/mL (≈ 1080 µM) | 500 µg/mL (≈ 1080 µM) | – | – | – | 208 to 209 °C | 500 µg/mL (≈ 1080 µM) | – | – | 500 µg/mL (≈ 1080 µM) | – | – | 250 to 500 µg/mL (≈ 539 to 1080 µM) |
